{
  "source": "patent US11230542B2",
  "about": "“Inhibitors of integrated stress response pathway” (Praxis Biotech LLC, priority 2017, dated 2022)",
  "test_system": "hippocampal slices from transgenic APP/PS1 mice",
  "assay": "Electrophysiology and long-term potentiation in hippocampal slices",
  "settings": "slices from APP/PS1 mouse, 5 μM, 60 min after theta burst stimulation",
  "method": "Hippocampal slices were prepared as described in Ardiles et al., Pannexin 1 regulates bidirectional hippocampal synaptic plasticity in adult mice. Front Cell Neurosci, vol. 8, art. 326 (2014). Six to eleven-month-old WT C57BL/6 or transgenic APP/PS1 mice (Jackson Lab 34829-JAX) were deeply anesthetized with isoflurane and their brains were quickly removed. 5-10 slices (350 μm) from each animal were dissected in ice-cold dissection buffer using a vibratome (Leica VT1200S, Leica Microsystems, Nussloch, Germany). Slices were incubated with 5 μM ISRIB, 5 μM compound 3, 1 μM compound 152, or a vehicle (complete medium containing 0.1% DMSO) 20 min before conditioning stimulation. Synaptic responses were evoked by stimulating the Schaffer collaterals with 0.2 ms pulses delivered through concentric bipolar stimulating electrodes, and recorded extracellularly in the stratum radiatum of the CA1 subfield. Long-term potentiation (LTP) was induced by four-theta burst stimulation (TBS) (10 trains of four pulses at 100 Hz; 5 Hz inter-burst interval) delivered at 0.1 Hz. LTP magnitude based on field excitatory postsynaptic potential (fEPSP) was calculated as the average (normalized to baseline) of the responses recorded 60 min after conditioning stimulation. Similar experiments can be performed using a different test compound in place of ISRIB, compound 3, or compound 152.",
  "data": [
    {"smiles": "O=C(COc1ccc(Cl)cc1)NC1CCC(NC(=O)COc2ccc(Cl)cc2)CC1", "note": "(stereo not shown) [ISRIB]", "values": [
      {"measurement": "long-term potentiation (LTP), fEPSP", "value": "partial LTP recovery"}
    ]}
  ]
}
